# According to publication PMC3740399, “Carfilzomib in multiple myeloma patients with renal impairment: pharmacokinetics and safety” (Leukemia, 2013):
# Assays:
# [1] = Urinary excretion of carfilzomib (LC MS/MS); type: in vivo, human
# Experimental: Blood for plasma PK analysis was collected on days 1 and 15 of Cycle 1, and on day 15 of Cycle 2, before dosing (t=0), at the end of dosing, and at 5, 15 and 30 min and 1, 1.5, 2, 4, 6 and 24 h after dosing; urine samples were collected cumulatively over 0–5 h and 5–24 h on days 1 and 15 of Cycle 1 following administration of carfilzomib to determine carfilzomib concentrations. Carfilzomib concentrations were determined using validated liquid chromatography tandem mass spectrometry (LC MS/MS) methods with a calibration range of 0.300–300 ng/ml for plasma samples and 4.0–2000 ng/ml for urine samples. Plasma concentration of carfilzomib versus time was plotted on days 1 and 15 in Cycle 1, and PK parameters were calculated using a non-compartmental constant infusion method using WinNonlin (Pharsight, Sunnyvale, CA, USA). To determine whether renal impairment affected the PK of carfilzomib, the relationship between renal function status and relevant PK parameters was evaluated. Statistical comparison (analysis of variance) of the ln-transformed dose-adjusted PK parameters was also performed between patients with normal renal function and each group of patients with renal impairment. For these parameters, 90% confidence intervals (CI) were calculated for the ratios between least squares of the mean (LSM) for each group versus the normal renal function group (Group 1). […]
# [2] = parameters: species or system human; conditions: in vivo
# Experimental: All patients who received at least one dose of carfilzomib were included in the safety population. Incidence, severity and duration of AEs, including all serious AEs and those considered to be treatment related, and shifts to or from abnormal relative to baseline in key laboratory parameters were categorized according to the National Cancer Institute's Common Terminology Criteria for Adverse Events (CTCAE) Version 3.0.[16] […] ECGs were performed in most patients to satisfy regulatory requirements, but were not required by the study protocol.
# [3] = system: relapsed and/or refractory multiple myeloma; assay: Efficacy: best response (IMWG criteria with EBMT minimal response); type: in vivo, human; conditions: for Overall response rate: PR or better
# Experimental: Patients who received at least 1 cycle of carfilzomib and had at least one post-baseline assessment for disease response were included in the efficacy analysis. Each evaluable patient's best response to treatment over the course of the study was evaluated by the investigator and sponsor using the International Myeloma Working Group Uniform Response Criteria, modified to include minimal response defined per the European Group for Blood and Marrow Transplantation.[17], [18] Responses assessed by the investigators at the end of the study are reported here. The overall response rate was defined as the proportion of PR or better responses, and the 95% Clopper-Pearson exact binomial CI was calculated. The duration of response was calculated as the time from the first evidence of a PR or better until confirmation of disease progression. Median time to progression and progression-free survival were assessed among all patients with >stable disease (s.d.). For progression-free survival, deaths due to causes other than disease progression were censored.
# [4] = in vivo
# Experimental: Carfilzomib was administered by IV infusion over 2–10 min on days 1, 2, 8, 9, 15 and 16 of a 28-day cycle for up to 12 cycles. The dose of carfilzomib in Cycle 1 was 15 mg/m^2. If this dose was tolerated, it was increased to 20 mg/m^2 at Cycle 2, and to 27 mg/m^2 at Cycle 3 and for all subsequent cycles as tolerated.
# Blood for plasma PK analysis was collected on days 1 and 15 of Cycle 1, and on day 15 of Cycle 2, before dosing (t=0), at the end of dosing, and at 5, 15 and 30 min and 1, 1.5, 2, 4, 6 and 24 h after dosing; urine samples were collected cumulatively over 0–5 h and 5–24 h on days 1 and 15 of Cycle 1 following administration of carfilzomib to determine carfilzomib concentrations. Carfilzomib concentrations were determined using validated liquid chromatography tandem mass spectrometry (LC MS/MS) methods with a calibration range of 0.300–300 ng/ml for plasma samples and 4.0–2000 ng/ml for urine samples. Plasma concentration of carfilzomib versus time was plotted on days 1 and 15 in Cycle 1, and PK parameters were calculated using a non-compartmental constant infusion method using WinNonlin (Pharsight, Sunnyvale, CA, USA). To determine whether renal impairment affected the PK of carfilzomib, the relationship between renal function status and relevant PK parameters was evaluated. Statistical comparison (analysis of variance) of the ln-transformed dose-adjusted PK parameters was also performed between patients with normal renal function and each group of patients with renal impairment. For these parameters, 90% confidence intervals (CI) were calculated for the ratios between least squares of the mean (LSM) for each group versus the normal renal function group (Group 1). […] The primary PK parameters—apparent plasma clearance, dose-normalized AUCinf (total exposure), and the dose-normalized Cmax on day 1 and day 15 of Cycle 1—were also estimated as a function of CrCl by linear regression using a mixed-effects model (Y=β0+β1 × CrCl+β2 × Age+β3 × weight, where Y=PK parameter, β0 = intercept, and β1, β2 and β3 are slope parameters associated with CrCl, age and weight, respectively).
# [5] = system: proteasome chymotrypsin-like activity; assay: Proteasome chymotrypsin-like activity in whole blood (RBC) and PBMC, fluorogenic substrate (LLVY-AMC) assay; type: in vivo, human
# Experimental: Proteasome chymotrypsin-like activity was measured in whole-blood (red blood cells, RBC) and isolated peripheral blood mononuclear cell samples using a fluorogenic-based substrate assay as previously described.[15] Blood for PDn analysis was collected before carfilzomib dosing and 1 h after carfilzomib dosing on days 1, 2 and 8 of Cycle 1 and on day 1 of Cycle 2.
# Figure 2 Proteasome inhibition following the first dose of carfilzomib. Proteasome activity was measured in whole-blood and peripheral blood mononuclear cells before and 1 h after the first dose of 15 mg/m^2 carfilzomib on day 1 of Cycle 1 (using LLVY-AMC substrate). Data are presented as mean activity (±s.e.m.) relative to pre-dose values for each group. The number of patient samples for each Group is noted. Group 1, normal renal function; Group 2, mild renal impairment; Group 3, moderate renal impairment; Group 4, severe renal impairment; Group 5, chronic dialysis.
# [6] = All patients, n=28, patients who received dexamethasone ⩾20 mg before carfilzomib doses
# [7] = All patients, n=47, all patients with response assessment
# [8] = Group 1 (normal renal function), n=7, patients who received dexamethasone ⩾20 mg before carfilzomib doses
# [9] = Group 1 (normal renal function), n=11, all patients with response assessment
# [10] = Group 2 (mild impairment), n=8, patients who received dexamethasone ⩾20 mg before carfilzomib doses
# [11] = Group 2 (mild impairment), n=11, all patients with response assessment
# [12] = Group 3 (moderate impairment), n=4, patients who received dexamethasone ⩾20 mg before carfilzomib doses
# [13] = Group 3 (moderate impairment), n=9, all patients with response assessment
# [14] = Group 4 (severe impairment), n=5, patients who received dexamethasone ⩾20 mg before carfilzomib doses
# [15] = Group 4 (severe impairment), n=8, all patients with response assessment
# [16] = Group 5 (chronic dialysis), n=4, patients who received dexamethasone ⩾20 mg before carfilzomib doses
# [17] = Group 5 (chronic dialysis), n=8, all patients with response assessment
smiles,measurement,setting,value
CC(C)C[C@H](NC(=O)[C@H](CCc1ccccc1)NC(=O)CN1CCOCC1)C(=O)N[C@@H](Cc1ccccc1)C(=O)N[C@@H](CC(C)C)C(=O)[C@@]1(C)CO1 [carfilzomib],"total amount of carfilzomib recovered in the urine, of the administered dose","[1]; all groups, Days 1 and 15 of Cycle 1, within 24 h post-dosing",less than 1%
same,mean total concentration of carfilzomib in urine,"[1]; group with normal renal function, day 1 of Cycle 1, 15 mg/m^2 IV, post-dose urine collection, LC MS/MS",0.157 mg
same,"ECG effects on heart rate, atrioventricular conduction, cardiac depolarization (QT, PR, QRS intervals)",[2],no clinically relevant effects
same,Complete response,[3]; [6],0 n (%)
same,Minimal response,[3]; [6],3 (10.7) n (%)
same,Progressive disease,[3]; [6],5 (17.9) n (%)
same,Stable disease,[3]; [6],10 (35.7) n (%)
same,Very good PR,[3]; [6],0 n (%)
same,Overall response rate,"[3]; All patients, n=47",12 (25.5) n (%)
same,Complete response,[3]; [7],0 n (%)
same,Progressive disease,[3]; [7],10 (21.3) n (%)
same,Stable disease,[3]; [7],21 (44.7) n (%)
same,Very good PR,[3]; [7],0 n (%)
same,"Duration of response, median (95% CI)","[3]; All patients, NE, not estimated due to censoring",7.9 months
same,Complete response,[3]; [8],0 n (%)
same,Minimal response,[3]; [8],1 n (%)
same,Progressive disease,[3]; [8],0 n (%)
same,Stable disease,[3]; [8],3 (42.9) n (%)
same,Very good PR,[3]; [8],0 n (%)
same,Minimal response,[3]; [9],1 (9.1) n (%)
same,Progressive disease,[3]; [9],1 (9.1) n (%)
same,"Duration of response, median (95% CI)","[3]; Group 1 (normal renal function), NE, not estimated due to censoring",NE (2.0–NE)
same,Complete response,[3]; [10],0 n (%)
same,Minimal response,[3]; [10],1 (12.5) n (%)
same,Progressive disease,[3]; [10],3 (37.5) n (%)
same,Stable disease,[3]; [10],1 (12.5) n (%)
same,Very good PR,[3]; [10],0 n (%)
same,Overall response rate,"[3]; Group 2 (mild impairment), n=11",3 (27.3) n (%)
same,Complete response,[3]; [11],0 n (%)
same,Minimal response,[3]; [11],1 (9.1) n (%)
same,Stable disease,[3]; [11],3 (27.3) n (%)
same,Very good PR,[3]; [11],0 n (%)
same,"Duration of response, median (95% CI)","[3]; Group 2 (mild impairment), NE, not estimated due to censoring",NE (4.2–NE)
same,Complete response,[3]; [12],0 n (%)
same,Minimal response,[3]; [12],0 n (%)
same,Progressive disease,[3]; [12],0 n (%)
same,Stable disease,[3]; [12],3 (75.0) n (%)
same,Very good PR,[3]; [12],0 n (%)
same,Overall response rate,"[3]; Group 3 (moderate impairment), n=9",2 (22.2) n (%)
same,Complete response,[3]; [13],0 n (%)
same,Minimal response,[3]; [13],0 n (%)
same,Progressive disease,[3]; [13],3 (33.3) n (%)
same,Stable disease,[3]; [13],4 (44.4) n (%)
same,Very good PR,[3]; [13],0 n (%)
same,"Duration of response, median (95% CI)","[3]; Group 3 (moderate impairment), NE, not estimated due to censoring",NE (2.3–NE)
same,Complete response,[3]; [14],0 n (%)
same,Minimal response,[3]; [14],1 (20.0) n (%)
same,Progressive disease,[3]; [14],2 (40.0) n (%)
same,Stable disease,[3]; [14],2 (40.0) n (%)
same,Very good PR,[3]; [14],0 n (%)
same,Overall response rate,"[3]; Group 4 (severe impairment), n=8",2 (25.0) n (%)
same,Complete response,[3]; [15],0 n (%)
same,Minimal response,[3]; [15],1 (12.5) n (%)
same,Progressive disease,[3]; [15],2 (25.0) n (%)
same,Stable disease,[3]; [15],3 (37.5) n (%)
same,Very good PR,[3]; [15],0 n (%)
same,"Duration of response, median (95% CI)","[3]; Group 4 (severe impairment), NE, not estimated due to censoring",NE (7.9–NE)
same,"Duration of response, median (95% CI)",[3]; Group 5 (chronic dialysis),7.9 (6.5–8.5) months
same,Complete response,[3]; [16],0 n (%)
same,Minimal response,[3]; [16],0 n (%)
same,Progressive disease,[3]; [16],0 n (%)
same,Stable disease,[3]; [16],1 (25.0) n (%)
same,Very good PR,[3]; [16],0 n (%)
same,Overall response rate,"[3]; Group 5 (chronic dialysis), n=8",3 (37.5) n (%)
same,Complete response,[3]; [17],0 n (%)
same,Minimal response,[3]; [17],0 n (%)
same,Progressive disease,[3]; [17],0 n (%)
same,Stable disease,[3]; [17],4 (50.0) n (%)
same,Very good PR,[3]; [17],0 n (%)
same,Response improved to PR after the addition of dexamethasone,[3]; nine of 28 patients who received dexamethasone before each carfilzomib dose after Cycle 2,32.1%
same,Slope (95% CI) of linear regression of AUCinf as a function of creatinine clearance,[4],"0.012 (−0.030, 0.054)"
same,Slope (95% CI) of linear regression of AUClast (h·ng/ml) as a function of creatinine clearance,[4],"0.008 (−0.031, 0.048)"
same,Slope (95% CI) of linear regression of Cmax (ng/ml) as a function of creatinine clearance,[4],"0.225 (−0.242, 0.692)"
same,Slope (95% CI) of linear regression of carfilzomib clearance (l/h) as a function of creatinine clearance,[4],"−0.607 (−2.129, 0.914)"
same,CL,[4]; iv,110 L/h
same,median terminal half life (t1/2),[4]; iv,less than 60 min
same,inhibition of proteasome CT-L activity from pre-dose levels,"[5]; RBCs and peripheral blood mononuclear cells, one hour after the first dose, 15 mg/m^2, range across groups",73–87%
same,recovery of proteasome CT-L activity in RBCs,"[5]; by the start of Cycle 2, cumulative inhibition during first treatment cycle",little to no recovery
same,recovery of proteasome activity in peripheral blood mononuclear cells,[5]; day 8 (5 days after the most recent dose) and beginning of Cycle 2 (12 days after dosing),complete or near to complete
